Experimental data as given in patent US10676514B2, “CDCA1-derived peptide and vaccine containing same” (ONCOTHERAPY SCIENCE, INC., priority 2014, dated 2020).
“Also recorded” adds a separate entry of the source.

Key:
[1] = test system: COS7 cells transfected with CDCA1 and HLA-A*0301; assay: Specific CTL activity against target cells expressing CDCA1 and HLA-A*0301; assay type: cell-based, African green monkey; details: for specific CTL activity of CTL clones: COS7 cells transfected with both CDCA1 and HLA-A*0301; for specific CTL activity of CTL clones against control cells: COS7 cells transfected with either full-length CDCA1 or HLA-A*0301
Source text: (§1) A cDNA encoding the open-reading frame of a target gene or HLA-A*0301 was amplified by PCR. The PCR-amplified product was cloned into an expression vector. Either or both of the target gene-expressing vector and the HLA-A*0301-expressing vector were transfected into COS7, which is a cell line negative for the target gene and HLA, using Lipofectamine 2000 (Invitrogen) following the manufacturer's recommended protocol. Two days after transfection, the transfected cells were harvested using versene (Invitrogen), and used as the target cell for CTL activity assay (5×10^4 cells/well).
(§2) The CTL clones established against CDCA1-A03-9-219 (SEQ ID NO: 7) (a) and CDCA1-A03-10-400 (SEQ ID NO: 38) (b) were investigated for their ability to recognize target cells expressing CDCA1 and the HLA-A*0301 molecule. COS7 cells transfected with both full-length CDCA1 and the HLA-A*0301 gene (a specific model of target cells expressing CDCA1 and the HLA-A*0301 gene) were prepared as the target cell. COS7 cells transfected with either full-length CDCA1 or HLA-A*0301 were prepared as the control.

[2] = test system: peptide-pulsed C1R-A11 cells; assay: IFN-gamma ELISPOT assay of peptide-induced CTLs (HLA-A*1101); assay type: cell-based, human; details: CTLs induced from HLA-A*1101-positive donors, peptide-pulsed C1R-A11 vs control
How it was run: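 CD8+ T cells from HLA-A*1101-positive healthy donors stimulated three times (days 0, 7, 14) with autologous monocyte-derived DCs pulsed with 20 μg/ml peptide, with IL-7 and IL-2. On day 21, CTL lines and clones tested by IFN-γ ELISPOT against peptide-pulsed C1R-A11 stimulators (1×10^4 cells/well).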

[3] = test system: COS7 cells transfected with CDCA1 and HLA-A*1101; assay: Specific CTL activity against target cells expressing CDCA1 and HLA-A*1101; assay type: cell-based, African green monkey; details: listed as CDCA1-A11-9-219
Source text: as §1, with “HLA-A*1101” for “HLA-A*0301”, “HLA-A*1101-expressing” for “HLA-A*0301-expressing”
as §2, with “clone” for “clones”, “CDCA-A11-9-219” for “CDCA1-A03-9-219”, “was” for “(a) and CDCA1-A03-10-400 (SEQ ID NO: 38) (b) were”, “its” for “their”, “HLA-A*1101” for “HLA-A*0301”

Row | Sequence | specific CTL activity of CTL clones ([1]; listed as CDCA1-A03-10-400) | specific CTL activity of CTL clones against control cells ([1]; listed as CDCA1-A03-10-400) | peptide-specific CTL activity (IFN-gamma production) ([2]; listed as CDCA1-A11-10-400) | specific CTL activity of CTL clone ([3]; COS7 cells transfected with both CDCA1 and HLA-A*1101) | specific CTL activity of CTL clone against control cells ([3]; COS7 cells transfected with either full-length CDCA1 or HLA-A*1101) | specific CTL activity of CTL clones ([1]; listed as CDCA1-A03-9-219) | specific CTL activity of CTL clones against control cells ([1]; listed as CDCA1-A03-9-219) | peptide-specific CTL activity (IFN-gamma production) ([2]; listed as CDCA1-A11-9-219)
1 | KIKLGIQQLK (a peptide derived from CDCA1) [SEQ ID NO: 38] | specific CTL activity; also recorded: potent CTL activity | a significant specific CTL activity was not shown; also recorded: a significant specific CTL activity was not detected | potent IFN-gamma production; also recorded: significant specific CTL activity |  |  |  |  | 
2 | KTKRLNELK (a peptide derived from CDCA1) [SEQ ID NO: 7] |  |  |  | specific CTL activity; also recorded: potent CTL activity | a significant specific CTL activity was not shown; also recorded: a significant specific CTL activity was not detected | specific CTL activity; also recorded: potent CTL activity | a significant specific CTL activity was not shown; also recorded: a significant specific CTL activity was not detected | potent IFN-gamma production; also recorded: significant specific CTL activity
